Data as given in patent publication US4539319A (priority 1982, dated 1985).
“And” between values parts separate entries of the source, which are not always exact repeats. Equal values may be shown once. Where a name gives a salt, the structure may show the parent alone. Read-outs that look alike come from different tables or passages of the source.

How the values were obtained:
ST from E coli P16 = system: ST from E coli P16; parameters: species or system mice; details: mouse, in vivo
ST from E coli P155 = system: ST from E coli P155; parameters: species or system mice; details: mouse, in vivo
[1] = Determination of Therapeutic Ratios: LD50 in suckling 8 day old mice; details: mouse, in vivo
Procedure: LD50 determinations were made by dosing groups of suckling 8 day old mice with appropriate concentrations orally. Deaths were noted over a 7 day period and LD50s calculated using a probit regression program. ED50 determinations were carried out by dosing groups of 6-8 day old mice with appropriate concentrations orally. The percentage fluid inhibition was determined as above and ED50s calculated using a log/linear regression analysis and the formula given in the British Pharmacopoeia.
For computation of T.R.'s the standard errors of ED50 values were corrected to normalise the errors and the T.R.'s expressed as the ratio (LD50 /ED50) and standard deviation range (Table 3).

E coli B44 = test: Protection of Neonatal Mice from Lethal Enteropathogenic E coli Infection; assay type: in vivo, E coli B44 infection in 4 day old mice; details: 10 mg/kg b.i.d.; for % mortality in mice dosed with compound: n = 60; for % Reduction in mortality: versus placebo
Procedure: 4 day old mice were orally dosed with 50 μl of phosphate buffered saline containing 1×10^5 organisms/ml of E coli B44. The mice were then dosed b.i.d. with either placebo or drug for four days commencing 16 hours after infection. The animals were left with their mothers throughout the experiment and a daily record of deaths was made. The experiment was terminated when no mortality was seen over a 24 hour period. (Usually 7-10 days after infection). The mortality in the drug group was then compared with the mortality in the placebo group using the following formula:
% Reduction in mortality=[(MP -MD)/MP]× 100
MP =mortality in group having placebo
MD =mortality in group receiving drug
Statistical analysis was performed using 2×2 contingency tables (single tailed `p`).

ST from E coli 431 = system: ST from E coli 431; parameters: species or system mice; details: mouse, in vivo
8 Bromo cyclic GMP = system: 8 Bromo cyclic GMP; parameters: species or system mice; details: mouse, in vivo
[2] = system: enterotoxin induced secretion; test: animal or person; assay type: in vivo, mice; details: Mus musculus, po
[3] = system: enterotoxin (culture filtrate) from enteropathogenic E coli strain P16; parameters: species or system piglets; details: in vivo; hydrochloride

With “4-Methoxy-N,N-di-amylamine-5,6,7,8-tetrahydro-1-naphthamidine, hydrochloride [Example 13]” the “% inhibition” value (ST from E coli P16; hydrochloride) was 38% and 33%.

With `CCCN(CCC)C(=N)c1ccc(OC)c2c1CCCC2` [Example 9, 4-methoxy-N',N'-di-n-propyl-5,6,7,8-tetrahydro-1-naphthamidine, hydrochloride] the “% inhibition” value (ST from E coli P16; hydrochloride) was 43% and 29%.

For `COc1ccc(C(=N)N2CCCCC2)c2c1CCCC2.Cl` [Example 10, 1-[Imino(4-methoxy-5,6,7,8-tetrahydro-1-naphthyl)-methyl]piperidine, hydrochloride], the “% inhibition” value (ST from E coli P16; hydrochloride) was 33% and 35%.

For `CCCCN(CCCC)C(=N)c1ccc(OC)c2c1CCCC2` [Example 11, N',N'-Di-n-butyl-4-methoxy-5,6,7,8-tetrahydro-1-naphthamidine, hydrochloride], the “% inhibition” value (ST from E coli P155) was 31%, the selectivity ratio ([1]; po, therapeutic ratio (T.R.), standard errors of ED50 corrected, range (3.9-8.1)) was 5.6 and the LD50 at 168 h ([1]; oral, 8 day old mice, deaths over 7 days, range (83-91)) was 87 mg/kg. For the same compound, the “% mortality in mice dosed with compound” value (E coli B44; day 2 post infection, control 31) was 25%, the “% Reduction in mortality” value (E coli B44; day 2 post infection) was 18% and the “% mortality in mice dosed with compound” value (E coli B44; day 3 post infection, control 68, *P < 0.05) was 47%. For the same compound, the “% Reduction in mortality” value (E coli B44; day 3 post infection) was 31%, the “% mortality in mice dosed with compound” value (E coli B44; day 4 post infection, control 79, **P < 0.01) was 53% and the “% Reduction in mortality” value (E coli B44; day 4 post infection) was 33%. The “% mortality in mice dosed with compound” value (E coli B44; day 5 post infection, control 84, ***P < 0.001) was 57%, the “% Reduction in mortality” value (E coli B44; day 5 post infection) was 32% and the “% mortality in mice dosed with compound” value (E coli B44; day 6 post infection, control 84, **P < 0.01) was 58%. For the same compound, the “% Reduction in mortality” value (E coli B44; day 6 post infection) was 30%, the “% mortality in mice dosed with compound” value (E coli B44; day 7 post infection, control 84, **P < 0.01) was 58% and the “% Reduction in mortality” value (E coli B44; day 7 post infection) was 30%. The “% inhibition (Table 2)” value (ST from E coli P16) was 59%, the “% inhibition” value (ST from E coli P16; hydrochloride) was 59% and 32% and the “% inhibition” value (ST from E coli 431) was 47%. For the same compound, the “% inhibition” value (8 Bromo cyclic GMP) was 42%, the ED50 [2] was 16 mg/kg and the “Mean scour score during 7 hr observation period ± SEM” value [3] was 2.1 ± 0.3 and 1.2 ± 0.2.

In the case of `CCCCN(CCCC)C(=N)c1ccc(OCc2ccccc2)c2c1CCCC2` [Example 12, N',N'-Di-n-butyl-4-benzyloxy-5,6,7,8-tetrahydro-1-naphthamidine, hydrochloride], the “% inhibition” value (ST from E coli P16; hydrochloride) is reported as 70% and 52%.

In the case of `CCCCN(CCCC)C(=N)c1ccc(OC(C)C)c2c1CCCC2` [Example 14, N',N'-di-n-butyl-4-isopropyloxy-5,6,7,8-tetrahydro-1-naphthamidine, hydrochloride], the “% inhibition” value (ST from E coli P16) is reported as 52%.

In the case of `CN(C)C(=N)c1ccc(OCc2ccccc2)c2c1CCCC2` [Example 15, 4-Benzyloxy-N',N'-dimethyl-5,6,7,8-tetrahydro-1-naphthamidine, hydrochloride], the “% inhibition” value (ST from E coli P16; hydrochloride) is reported as 39% and 22%.

With `CCCCN(CCCC)C(=N)c1ccc(O)c2c1CCCC2` [Example 16, N',N'-di-n-butyl-4-hydroxy-5,6,7,8-tetrahydro-1-naphthamidine hydrochloride] the “% inhibition” value (ST from E coli P16; hydrochloride) was 58% and 41%.
